Results taken from ChEMBL document CHEMBL3046635, “Synthesis and Herbicidal Activity of New Pyrazole-4-carboxamide Derivatives” (J Pestic Sci, 2004).
The source made the active and inactive calls.

How the values were obtained:
Oryza sativa = test: Phytotoxicity against Oryza sativa cv. Koshihikari (rice) at 500 g a.i/ha measured after 14 days; type: organism-based; details: in vivo, 336 h
Eleocharis acicularis [1] = test: Pre-emergence herbicidal activity against Eleocharis acicularis at 500 g a.i/ha measured after 14 days; type: functional, organism-based
Pontederia vaginalis [2] = test: Pre-emergence herbicidal activity against Monochoria vaginalis at 500 g a.i/ha measured after 14 days; type: functional, organism-based
[3] = system: Schoenoplectiella juncoides; test: Pre-emergence herbicidal activity against Schoenoplectiella juncoides at 500 g a.i/ha measured after 14 days; type: functional, organism-based
Ammannia multiflora [4] = test: Pre-emergence herbicidal activity against Ammannia multiflora at 500 g a.i/ha measured after 14 days; type: functional, organism-based
Elatine triandra [5] = test: Pre-emergence herbicidal activity against Elatine triandra at 500 g a.i/ha measured after 14 days; type: functional, organism-based
Rotala indica [6] = test: Pre-emergence herbicidal activity against Rotala indica at 500 g a.i/ha measured after 14 days; type: functional, organism-based
Lindernia procumbens [7] = test: Pre-emergence herbicidal activity against Lindernia procumbens at 500 g a.i/ha measured after 14 days; type: functional, organism-based
Echinochloa oryzicola [8] = test: Pre-emergence herbicidal activity against Echinochloa oryzicola at 500 g a.i/ha measured after 14 days; type: functional, organism-based
Cyperus difformis [9] = test: Pre-emergence herbicidal activity against Cyperus difformis at 500 g a.i/ha measured after 14 days; type: functional, organism-based
Eleocharis acicularis [10] = test: Post-emergence herbicidal activity against Eleocharis acicularis assessed as bleaching of stem/leaf parts; type: functional, organism-based; further: test concentration or dose not given here
Eleocharis acicularis [11] = test: Pre-emergence herbicidal activity against Eleocharis acicularis assessed as bleaching of stem/leaf parts; type: functional, organism-based
Ammannia multiflora [12] = test: Pre-emergence herbicidal activity against Ammannia multiflora assessed as bleaching of stem/leaf parts; type: functional, organism-based
Rotala indica [13] = test: Pre-emergence herbicidal activity against Rotala indica assessed as bleaching of stem/leaf parts; type: functional, organism-based
Elatine triandra [14] = test: Pre-emergence herbicidal activity against Elatine triandra assessed as bleaching of stem/leaf parts; type: functional, organism-based
Lindernia procumbens [15] = test: Pre-emergence herbicidal activity against Lindernia procumbens assessed as bleaching of stem/leaf parts; type: functional, organism-based
[16] = system: Schoenoplectiella juncoides; test: Pre-emergence herbicidal activity against Schoenoplectiella juncoides assessed as bleaching of stem/leaf parts; type: functional, organism-based
Pontederia vaginalis [17] = test: Pre-emergence herbicidal activity against Monochoria vaginalis assessed as bleaching of stem/leaf parts; type: functional, organism-based
Cyperus difformis [18] = test: Pre-emergence herbicidal activity against Cyperus difformis assessed as bleaching of stem/leaf parts; type: functional, organism-based
Echinochloa oryzicola [19] = test: Pre-emergence herbicidal activity against Echinochloa oryzicola assessed as bleaching of stem/leaf parts; type: functional, organism-based
Ammannia multiflora [20] = test: Post-emergence herbicidal activity against Ammannia multiflora assessed as bleaching of stem/leaf parts; type: functional, organism-based; further: test concentration or dose not given here
Elatine triandra [21] = test: Post-emergence herbicidal activity against Elatine triandra assessed as bleaching of stem/leaf parts; type: functional, organism-based; further: test concentration or dose not given here
Rotala indica [22] = test: Post-emergence herbicidal activity against Rotala indica assessed as bleaching of stem/leaf parts; type: functional, organism-based; further: test concentration or dose not given here
[23] = system: Schoenoplectiella juncoides; test: Post-emergence herbicidal activity against Schoenoplectiella juncoides assessed as bleaching of stem/leaf parts; type: functional, organism-based; further: test concentration or dose not given here
Lindernia procumbens [24] = test: Post-emergence herbicidal activity against Lindernia procumbens assessed as bleaching of stem/leaf parts; type: functional, organism-based; further: test concentration or dose not given here
Pontederia vaginalis [25] = test: Post-emergence herbicidal activity against Monochoria vaginalis assessed as bleaching of stem/leaf parts; type: functional, organism-based; further: test concentration or dose not given here
Cyperus difformis [26] = test: Post-emergence herbicidal activity against Cyperus difformis assessed as bleaching of stem/leaf parts; type: functional, organism-based; further: test concentration or dose not given here
Echinochloa oryzicola [27] = test: Post-emergence herbicidal activity against Echinochloa oryzicola assessed as bleaching of stem/leaf parts; type: functional, organism-based; further: test concentration or dose not given here

SMILES	Activity (Oryza sativa)	Activity (Pontederia vaginalis [2])	Activity [3]	Activity (Ammannia multiflora [4])	Activity (Elatine triandra [5])	Activity (Rotala indica [6])	Activity (Lindernia procumbens [7])	Activity (Echinochloa oryzicola [8])	Activity (Cyperus difformis [9])	Activity (Eleocharis acicularis [10])	Activity (Eleocharis acicularis [11])	Activity (Ammannia multiflora [12])	Activity (Rotala indica [13])	Activity (Elatine triandra [14])	Activity (Lindernia procumbens [15])	Activity [16]	Activity (Pontederia vaginalis [17])	Activity (Cyperus difformis [18])	Activity (Echinochloa oryzicola [19])	Activity (Ammannia multiflora [20])	further results
Cc1c(C(=O)NOc2ccc(F)cc2F)c(OCc2cccc(C(F)(F)F)c2)nn1C	Non-toxic	inactive	Active	inactive	inactive	inactive	inactive	inactive	inactive	Active	Active	Active	Active	Active	Active	Active	Active	Active	Active	Active	Activity (Eleocharis acicularis [1]): inactive; Activity (Elatine triandra [21]): Active; Activity (Rotala indica [22]): Active; Activity [23]: Active; Activity (Lindernia procumbens [24]): Active; Activity (Pontederia vaginalis [25]): Active; Activity (Cyperus difformis [26]): Active; Activity (Echinochloa oryzicola [27]): Active
C#CCNC(=O)c1cn(C)nc1OCc1cccc(C(F)(F)F)c1	Non-toxic	inactive	inactive	inactive	inactive	inactive	inactive	inactive	inactive	Active	Active	Active	Active	Active	Active	Active	Active	Active	Active	Active	Activity (Eleocharis acicularis [1]): inactive; Activity (Elatine triandra [21]): Active; Activity (Rotala indica [22]): Active; Activity [23]: Active; Activity (Lindernia procumbens [24]): Active; Activity (Pontederia vaginalis [25]): Active; Activity (Cyperus difformis [26]): Active; Activity (Echinochloa oryzicola [27]): Active
CCN(C(=O)c1cn(C)nc1OCc1cccc(C(F)(F)F)c1)C1CCCCC1	Non-toxic	inactive	inactive	inactive	inactive	inactive	inactive	inactive	inactive	Active	Active	Active	Active	Active	Active	Active	Active	Active	Active	Active	Activity (Eleocharis acicularis [1]): inactive; Activity (Elatine triandra [21]): Active; Activity (Rotala indica [22]): Active; Activity [23]: Active; Activity (Lindernia procumbens [24]): Active; Activity (Pontederia vaginalis [25]): Active; Activity (Cyperus difformis [26]): Active; Activity (Echinochloa oryzicola [27]): Active
Cn1cc(C(=O)Nc2ccc(S(C)(=O)=O)cc2)c(OCc2cccc(C(F)(F)F)c2)n1	Non-toxic	inactive	inactive	inactive	inactive	inactive	inactive	inactive	inactive	Active	Active	Active	Active	Active	Active	Active	Active	Active	Active	Active	Activity (Elatine triandra [21]): Active; Activity (Rotala indica [22]): Active; Activity [23]: Active; Activity (Lindernia procumbens [24]): Active; Activity (Pontederia vaginalis [25]): Active; Activity (Cyperus difformis [26]): Active; Activity (Echinochloa oryzicola [27]): Active
Cn1cc(C(=O)Nc2cccc(Cl)c2)c(OCc2cccc(C(F)(F)F)c2)n1	Non-toxic	inactive	Active	Active	Active	Active	Active	inactive	inactive	Active	Active	Active	Active	Active	Active	Active	Active	Active	Active	Active	Activity (Elatine triandra [21]): Active; Activity (Rotala indica [22]): Active; Activity [23]: Active; Activity (Lindernia procumbens [24]): Active; Activity (Pontederia vaginalis [25]): Active; Activity (Cyperus difformis [26]): Active; Activity (Echinochloa oryzicola [27]): Active
